Laboratory results as given in patent US4051237A, “Glycopeptide antibiotics Bu-2231 A and B and process for producing same” (priority 1975, dated 1977).
Values after ≈ are worked out from the molar mass of the structure shown.

What was measured:
[1] = tested on: C. tropicalis #125 A15051; assay: MIC by two-fold agar dilution; assay type: cell-based; settings: Ct-4 C. tropicalis #125 A15051; sabouraud agar; unit assumed
S. aureus 209P = assay: MIC by two-fold agar dilution; assay type: cell-based; settings: Mueller-Hinton agar, unit assumed
E. coli A20732 = assay: MIC by two-fold agar dilution; assay type: cell-based; settings: Mueller-Hinton agar, unit assumed
Mycobacterium 607, D46 = assay: MIC by two-fold agar dilution; assay type: cell-based; settings: Medium #1001, unit assumed
S. aureus 209P, R4 = assay: MIC by two-fold agar dilution; assay type: cell-based; settings: Mueller-Hinton agar, unit assumed
Experimental: The minimum inhibitory concentrations (MIC) of Bu-2231 A and B were determined against a wide variety of bacteria and fungi by the two-fold agar dilution method. Mueller-Hinton agar medium was used for the determination of bacterial MIC's (gram-positive and gram-negative), Medium #1001 [Glycerol (3%). Na-glutamate (0.3%), peptone (0.2%), Na2 HPO4 (0.31%), KH2 PO4 (0.1%), ammonium citrate (0.005%), MgSO4.7H2 O (0.001%), agar (1.5%)] for acid-fast bacteria and sabouraud agar for fungi. The results are shown in Tables 9 and 10 comparatively with bleomycin and phleomycin. The antibacterial and antifungal activities of Bu-2231 A and B are much higher than those of the reference antibiotics.

E. coli NIHJ = assay: In vivo activity in experimental mice infection; settings: Table 12
Experimental: The in vivo activity of Bu-2231 complex was evaluated in experimental mice infections against S. aureus Smith and E. coli NIHJ. Bleomycin was tested comparatively as a reference antibiotic.
The in vivo activty of the individual components of Bu-2231 in each of the copper-free and copper complex forms was also determined in E. coli infection.

E. coli A20665 = assay: MIC by two-fold agar dilution; assay type: cell-based; settings: Mueller-Hinton agar, unit assumed
P. vulgaris A9436 = assay: MIC by two-fold agar dilution; assay type: cell-based; settings: Mueller-Hinton agar, unit assumed
K. pneumoniae D11 = assay: MIC by two-fold agar dilution; assay type: cell-based; settings: Mueller-Hinton agar, unit assumed
C. tropicalis IAM 4157 = assay: MIC by two-fold agar dilution; assay type: cell-based; settings: Ct-1 C. tropicalis IAM 4157; sabouraud agar; unit assumed
C. neoformans IAM 4514 = assay: MIC by two-fold agar dilution; assay type: cell-based; settings: Cn-2 C. neoformans IAM 4514; sabouraud agar; unit assumed
Mycobacterium 607, D47 = assay: MIC by two-fold agar dilution; assay type: cell-based; settings: Medium #1001, unit assumed
Verticillium sp. = assay: MIC by two-fold agar dilution; assay type: cell-based; settings: Vx-1 Verticillium sp.; sabouraud agar; unit assumed
T. mentagrophytes D-155 = assay: MIC by two-fold agar dilution; assay type: cell-based; settings: Tm-1 T. mentagrophytes D-155; sabouraud agar; unit assumed
B. anthracis 115 = assay type: cell-based; settings: Mueller-Hinton agar, unit assumed
S. aureus A20239 = assay: MIC by two-fold agar dilution; assay type: cell-based; settings: Mueller-Hinton agar, unit assumed
[2] = mice, single subcutaneous injection, 16 days
Experimental: The acute toxicity of copper-free Bu-2231 A and B was determined in mice by a single subcutaneous injection. Groups of 3 mice were used for each dose level and the body weight was recorded for 16 days.

S. marcescens A20019 = assay: MIC by two-fold agar dilution; assay type: cell-based; settings: Mueller-Hinton agar, unit assumed
P. mirabilis A9554 = assay: MIC by two-fold agar dilution; assay type: cell-based; settings: Mueller-Hinton agar, unit assumed
P. citrinum IAM 7008 = assay: MIC by two-fold agar dilution; assay type: cell-based; settings: Pt-1 P. citrinum IAM 7008; sabouraud agar; unit assumed
K. pneumoniae A20680 = assay: MIC by two-fold agar dilution; assay type: cell-based; settings: Mueller-Hinton agar, unit assumed
C. lunata ATCC 13432 = assay: MIC by two-fold agar dilution; assay type: cell-based; settings: Cl-1 C. lunata ATCC 13432; sabouraud agar; unit assumed
B. subtilis PCI-219 = assay: MIC by two-fold agar dilution; assay type: cell-based; settings: Mueller-Hinton agar, unit assumed

`Cc1c(N)nc([C@H](CC(N)=O)NC[C@H](N)C(N)=O)nc1C(=O)N[C@H](C(=O)N[C@H](C)[C@@H](O)CC(=O)N[C@H](C(=O)NC(O[C@@H]1O[C@@H](C)[C@@H](N)[C@@H](O)[C@H]1O)C(O)c1nc(-c2nc(C(=O)NCCCC(N)CC(=O)NCCCNCCCCN)cs2)cs1)[C@@H](C)O)[C@H](O[C@@H]1O[C@@H](CO)[C@@H](O)[C@H](O)[C@@H]1O[C@H]1O[C@H](CO)[C@@H](O)[C@H](OC(N)=O)[C@@H]1O)c1c[nH]cn1` (stereo partly shown) [Bu-2231 A Cu-free] gave an MIC [1] of 0.8 µg/mL (≈ 0.462 µM), an MIC (S. aureus 209P) of 0.1 µg/mL (≈ 0.0577 µM) and an MIC (E. coli A20732) of 0.05 µg/mL (≈ 0.0289 µM). For the same molecule, the MIC (Mycobacterium 607, D46) was 0.1 µg/mL (≈ 0.0577 µM), the MIC (S. aureus 209P, R4) was 0.4 µg/mL (≈ 0.231 µM) and the PD50 (E. coli NIHJ; E. coli NIHJ infection, mice, sc) was 0.024 mg/kg. The “In vivo activity vs. E. coli NIHJ infection (x/5 mice)” value (E. coli NIHJ; dose (sc) 0.008) was 1/5, the “In vivo activity vs. E. coli NIHJ infection (x/5 mice)” value (E. coli NIHJ; dose (sc) 0.03) was 3/5 and the “In vivo activity vs. E. coli NIHJ infection (x/5 mice)” value (E. coli NIHJ; dose (sc) 0.13) was 5/5. The “In vivo activity vs. E. coli NIHJ infection (x/5 mice)” value (E. coli NIHJ; dose (sc) 0.5) was 5/5, the “In vivo activity vs. E. coli NIHJ infection (x/5 mice)” value (E. coli NIHJ; dose (sc) 2) was 5/5 and the MIC (E. coli A20665) was 0.05 µg/mL (≈ 0.0289 µM). It also gave an MIC (P. vulgaris A9436) of 0.2 µg/mL (≈ 0.115 µM), an MIC (K. pneumoniae D11) of under 0.0063 µg/mL and an MIC (C. tropicalis IAM 4157) of 0.8 µg/mL (≈ 0.462 µM). For the same molecule, the MIC (C. neoformans IAM 4514) was 0.4 µg/mL (≈ 0.231 µM), the MIC (Mycobacterium 607, D47) was 0.1 µg/mL (≈ 0.0577 µM) and the MIC (Verticillium sp.) was 3.1 µg/mL (≈ 1.79 µM). The MIC (T. mentagrophytes D-155) was 12.5 µg/mL (≈ 7.22 µM), the MIC (B. anthracis 115) was 0.05 µg/mL (≈ 0.0289 µM) and the MIC (S. aureus A20239) was 0.2 µg/mL (≈ 0.115 µM). It also gave an LD50 [2] of 28 mg/kg, an MIC (S. marcescens A20019) of 0.4 µg/mL (≈ 0.231 µM) and an MIC (P. mirabilis A9554) of 0.1 µg/mL (≈ 0.0577 µM). It also gave an MIC (P. citrinum IAM 7008) of 1.6 µg/mL (≈ 0.924 µM), an MIC (K. pneumoniae A20680) of 6.3 µg/mL (≈ 3.64 µM) and an MIC (C. lunata ATCC 13432) of 0.8 µg/mL (≈ 0.462 µM). For the same molecule, the MIC (B. subtilis PCI-219) was under 0.0063 µg/mL.
